In US20070167492A1, “Molluscicidal agents” (priority 2003, published 2007):

How the values were obtained:
[1] = Example 1: pot test, treated winter wheat seed with 5 adult slugs per pot, 14 days; type: in vivo, Deroceras reticulatum; conditions: Example 1; winter wheat seed treatment
Summary of the method: (§1)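 Fludioxonil-disinfected winter wheat seed (Kampa, 40 per pot) sown on quartz sand over potting soil with 5 adult slugs per pot; ±15° C., ±90% RH, 12 h light/12 h dark, 4 replicates. Damaged seeds, plants, dead slugs and fecal pellets counted up to day 14; F-tests and Student-tests.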

[2] = tested on: Deroceras reticulatum (grey field slug); test: as above; type: in vivo
Summary of the method: as §1

[3] = 2 ml formulated per kg seed, 2 days after sowing
[4] = 2 ml formulated per kg seed, 3 days after sowing
[5] = 2 ml formulated per kg seed, 7 days after sowing
[6] = 2 ml formulated per kg seed, 10 days after sowing
[7] = 2 ml formulated per kg seed, 14 days after sowing
[8] = 4 ml formulated per kg seed, 2 days after sowing
[9] = 4 ml formulated per kg seed, 3 days after sowing
[10] = 4 ml formulated per kg seed, 7 days after sowing
[11] = 4 ml formulated per kg seed, 10 days after sowing
[12] = 4 ml formulated per kg seed, 14 days after sowing
[13] = 10 ml formulated per kg seed, 2 days after sowing
[14] = 10 ml formulated per kg seed, 3 days after sowing
[15] = 10 ml formulated per kg seed, 7 days after sowing
[16] = 10 ml formulated per kg seed, 10 days after sowing
[17] = 10 ml formulated per kg seed, 14 days after sowing

O=CC=Cc1ccccc1 [cinnamaldehyde]
phytotoxicity [1]: phytotoxic
number of utilizable plants after 14 days ([2]; 2 ml formulated per kg seed): 6.8
percentage of damaged seeds after 14 days ([2]; 2 ml formulated per kg seed): 64%
Mean number of damaged seeds per pot [2, 3]: 2.0
Mean number of dead slugs per pot [2, 3]: 0
Mean number fecal pellets per pot [2, 4]: 47
Mean number of damaged seeds per pot [2, 4]: 5.5
Mean number of dead slugs per pot [2, 4]: 1.3
Mean number of plants present per pot [2, 4]: 3.3
Mean number fecal pellets per pot [2, 5]: 71
Mean number of damaged seeds per pot [2, 5]: 24.5
Mean number of dead slugs per pot [2, 5]: 1.3
Mean number of plants present per pot [2, 5]: 5.0
Mean number fecal pellets per pot [2, 6]: 80
Mean number of damaged seeds per pot [2, 6]: 24.8
Mean number of dead slugs per pot [2, 6]: 1.3
Mean number of plants present per pot [2, 6]: 6.8
Mean number fecal pellets per pot [2, 7]: 95
Mean number of damaged seeds per pot [2, 7]: 25.8
Mean number of dead slugs per pot [2, 7]: 1.8
Mean number of plants present per pot [2, 7]: 6.8
number of utilizable plants after 14 days ([2]; 4 ml formulated per kg seed): 0.5
percentage of damaged seeds after 14 days ([2]; 4 ml formulated per kg seed): 73%
Mean number of damaged seeds per pot [2, 8]: 3.3
Mean number of dead slugs per pot [2, 8]: 0
Mean number fecal pellets per pot [2, 9]: 46
Mean number of damaged seeds per pot [2, 9]: 6.5
Mean number of dead slugs per pot [2, 9]: 0
Mean number of plants present per pot [2, 9]: 3.0
Mean number fecal pellets per pot [2, 10]: 111
Mean number of damaged seeds per pot [2, 10]: 26.5
Mean number of dead slugs per pot [2, 10]: 0.3
Mean number of plants present per pot [2, 10]: 1.3
Mean number fecal pellets per pot [2, 11]: 152
Mean number of damaged seeds per pot [2, 11]: 27.0
Mean number of dead slugs per pot [2, 11]: 0.3
Mean number of plants present per pot [2, 11]: 1.8
Mean number fecal pellets per pot [2, 12]: 160
Mean number of damaged seeds per pot [2, 12]: 29.0
Mean number of dead slugs per pot [2, 12]: 0.8
Mean number of plants present per pot [2, 12]: 0.8
number of utilizable plants after 14 days ([2]; 10 ml formulated per kg seed): 0.5
percentage of damaged seeds after 14 days ([2]; 10 ml formulated per kg seed): 37%
Mean number of damaged seeds per pot [2, 13]: 4.0
Mean number of dead slugs per pot [2, 13]: 0
Mean number fecal pellets per pot [2, 14]: 54
Mean number of damaged seeds per pot [2, 14]: 7.0
Mean number of dead slugs per pot [2, 14]: 1.3
Mean number of plants present per pot [2, 14]: 5.0
Mean number fecal pellets per pot [2, 15]: 58
Mean number of damaged seeds per pot [2, 15]: 10.3
Mean number of dead slugs per pot [2, 15]: 1.3
Mean number of plants present per pot [2, 15]: 0.3
Mean number fecal pellets per pot [2, 16]: 77
Mean number of damaged seeds per pot [2, 16]: 10.3
Mean number of dead slugs per pot [2, 16]: 1.3
Mean number of plants present per pot [2, 16]: 0.5
Mean number fecal pellets per pot [2, 17]: 93
Mean number of damaged seeds per pot [2, 17]: 14.8
Mean number of dead slugs per pot [2, 17]: 1.3
Mean number of plants present per pot [2, 17]: 0.8
dead slugs relative to the untreated seed ([2]; Example 1, 2 or 10 ml per kg of seed, 3 days after the start): significantly more dead slugs
damaged seeds relative to the untreated seed ([2]; Example 1, all dosages (2, 4, 10 ml/kg), after 3 and 7 days): significantly less damaged seeds
protection / slug controlling effect (conclusion) ([2]; Example 1, winter wheat seed treatment, dosages tested): no protection to the plant
